In patent US10023602B2, “Hamamelitannin analogues and uses thereof” (Universiteit Gent, priority 2014, dated 2018):

Key:
[1] = tested on: methicillin resistant S. aureus Mu50 strain (S. aureus ATCC700699) biofilm; assay: Biofilm susceptibility to vancomycin, combination treatment regimen (mature biofilm treated with compound plus vancomycin); type: cell-based; conditions: for Combin. (100 μM): percentage Colony Forming Units (CFU's) per biofilm: compound 100 μM together with VAN 20 μg/ml on mature biofilm; for Combin. (100 μM): percentage Colony Forming Units (CFU's) per biofilm / Combin. (25 μM): percentage Colony Forming Units (CFU's) per biofilm: compared to the untreated (negative) control; for EC50: concentration needed to get 50% killing compared to antibiotic alone (VAN 20 μg/ml) and complete killing, read-out: Combin. (EC50); for Combin. (25 μM): percentage Colony Forming Units (CFU's) per biofilm: compound 25 μM together with VAN 20 μg/ml on mature biofilm
Description: (§1) The compounds were evaluated for their effect on biofilm susceptibility both under pre-treatment and combination treatment regimens. In the pre-treatment regimen, a methicillin resistant S. aureus Mu50 strain (S. aureus ATCC700699) was allowed to form biofilms in the presence of the compounds after which the biofilm was treated with vancomycin (20 μg/ml). In the combination treatment regimen, S. aureus Mu50 was allowed to form a mature biofilm after which it was treated with a combination of a compound and vancomycin. In brief, 100 μl of a standardized inoculum (10^8 CFU/ml) was placed in the wells of a round-bottom 96-well microtiter plate. The cells were allowed to adhere to the plate in the absence (combined treatment) or presence (pre-treatment) of the compounds (0.1-250 μM) for 4 h at 37° C. After this adhesion step, non-adhered cells were removed, the wells were rinsed and fresh medium with or without the compounds was added. The plates were incubated for an additional 20 h at 37° C. After this, the medium was removed, biofilms were rinsed with physiological saline and vancomycin (20 μg/ml) was added alone (pre-treatment) or with the compounds (combined treatment, 0.1-250 μM). Plates were placed at 37° C. for 24 h after which medium was removed, wells were rinsed and the surviving cells in each condition were collected. The number of surviving cells under each condition was compared to vancomycin treatment alone and was assessed by conventional plating. The REF compound (hamamelitannin) was also observed for its effect on biofilm susceptibility towards other antibiotics (incl. vancomycin, cefoxitin, tobramycin, cefazolin, cefalonium, daptomycin, linezolide and cephalexin). Biofilms were formed as described above and were treated with the antibiotics alone or in combination with the REF compound (250 μM). The number of surviving cells under each condition was compared to the untreated control biofilm and was assessed by conventional plating.

[2] = tested on: methicillin resistant S. aureus Mu50 strain (S. aureus ATCC700699) biofilm; assay: Biofilm susceptibility to vancomycin, pre-treatment regimen (biofilm formed in presence of compound, then vancomycin); type: cell-based; conditions: for Pretreat (100 μM): percentage Colony Forming Units (CFU's) per biofilm: compound 100 μM during biofilm formation; for Pretreat (100 μM): percentage Colony Forming Units (CFU's) per biofilm / Pretreat. (25 μM): percentage Colony Forming Units (CFU's) per biofilm: then VAN 20 μg/ml, compared to the untreated (negative) control; for EC50: concentration needed to get 50% killing compared to antibiotic alone (VAN 20 μg/ml) and complete killing, read-out: Pretreat. (EC50); for Pretreat. (25 μM): percentage Colony Forming Units (CFU's) per biofilm: compound 25 μM during biofilm formation
Description: as §1

Row | SMILES | Combin. (100 μM): percentage Colony Forming Units (CFU's) per biofilm [1] [percentage] | Pretreat (100 μM): percentage Colony Forming Units (CFU's) per biofilm [2] [percentage] | EC50 [1] [µM] | EC50 [2] [µM] | Combin. (25 μM): percentage Colony Forming Units (CFU's) per biofilm [1] [percentage] | Pretreat. (25 μM): percentage Colony Forming Units (CFU's) per biofilm [2] [percentage]
1 | CC(=O)NC[C@H]1OC[C@@](O)(CNC(=O)c2ccccc2)[C@@H]1O [compound 225, N-(((3S,4R,5R)-5-(acetamidomethyl)-3,4-dihydroxytetrahydrofuran-3-yl)methyl)benzamide] | 27.38 | 23.96 |  |  |  | 
2 | O=C(NC[C@H]1OC[C@@](O)(CNC(=O)c2ccccc2)[C@@H]1O)c1cncnc1 [compound 205, N-(((2R,3R,4S)-4-(benzamidomethyl)-3,4-dihydroxytetrahydrofuran-2-yl)methyl)pyrimidine-5-carboxamide] | 16.51 | 6.699 |  |  |  | 
3 | O=C(NC[C@H]1OC[C@@](O)(CNC(=O)c2ccccc2)[C@@H]1O)c1ccc(F)c(F)c1 [compound 181, N-(((2R,3R,4S)-4-(benzamidomethyl)-3,4-dihydroxytetrahydrofuran-2-yl)methyl)-3,4-difluorobenzamide] | 59.09 | 67.74 |  |  |  | 
4 | O=C(NC[C@]1(O)CO[C@H](CNC(=O)c2ccccc2-c2ccccc2)[C@H]1O)c1ccccc1 [compound 177, N-(((2R,3R,4S)-4-(benzamidomethyl)-3,4-dihydroxytetrahydrofuran-2-yl)methyl)-[1,1′-biphenyl]-2-carboxamide] | 13.23 | 15.07 |  |  |  | 
5 | O=C(NC[C@H]1OC[C@@](O)(CNC(=O)c2ccccc2)[C@@H]1O)c1cccc(C(F)(F)F)c1 [compound 166, N-(((2R,3R,4S)-4-(benzamidomethyl)-3,4-dihydroxytetrahydrofuran-2-yl)methyl)-3-(trifluoromethyl)benzamide] | 12.34 | 10.16 | 12.3 | 9.13 |  | 
6 | O=C(NC[C@]1(O)CO[C@H](CNC(=O)c2ccccc2Cl)[C@H]1O)c1cccc(Cl)c1 [compound 241, 2-chloro-N-(((2R,3R,4S)-4-((3-chlorobenzamido)methyl)-3,4-dihydroxytetrahydrofuran-2-yl)methyl)benzamide] |  |  |  |  | 81.35 | 98.17
7 | Cc1ccc(C(=O)NC[C@]2(O)CO[C@H](CNC(=O)c3ccccc3Cl)[C@H]2O)cc1 [compound 232, 2-chloro-N-(((2R,3R,4S)-3,4-dihydroxy-4-((4-methylbenzamido)methyl)tetrahydrofuran-2-yl)methyl)benzamide] |  |  | 41.9 | 79.7 | 42.16 | 52.41
8 | COc1cc(C(=O)NC[C@H]2OC(O)[C@@](O)(CNC(=O)c3cc(OC)c(OC)c(OC)c3)[C@@H]2O)cc(OC)c1OC (stereo partly drawn) [compound 16, N,N′-(((2R,3R,4R)-3,4,5-trihydroxytetrahydrofuran-2,4-diyl)bis(methylene))bis(3,4,5-trimethoxybenzamide)] | 71.85 | 62.41 | 238 | 207 |  | 
9 | O=C(NC[C@]1(O)CO[C@H](CNC(=O)c2c(Cl)ccnc2Cl)[C@H]1O)c1ccccc1 [compound 196, N-(((2R,3R,4S)-4-(benzamidomethyl)-3,4-dihydroxytetrahydrofuran-2-yl)methyl)-2,4-dichloronicotinamide] | 8.072 | 21.86 | 7.88 | 13 |  | 
10 | O=C(NC[C@H]1OC[C@@](O)(CNC(=O)c2ccccc2)[C@@H]1O)c1cccc(-c2ccccc2)c1 [compound 168, N-(((2R,3R,4S)-4-(benzamidomethyl)-3,4-dihydroxytetrahydrofuran-2-yl)methyl)-[1,1′-biphenyl]-3-carboxamide] | 32.61 | 9.830 |  |  |  | 
11 | O=C(NC[C@]1(O)CO[C@H](CNC(=O)c2ccccc2Cl)[C@H]1O)c1ccc(-c2ccccc2)cc1 [compound 252, N-(((3S,4R,5R)-5-((2-chlorobenzamido)methyl)-3,4-dihydroxytetrahydrofuran-3-yl)methyl)-[1,1′-biphenyl]-4-carboxamide] | 29.40 | 2.25 | 69.2 | 11.8 |  | 
12 | O=C(CCc1ccccc1)NC[C@H]1OC[C@@](O)(CNC(=O)c2ccccc2)[C@@H]1O [compound 190, N-(((3S,4R,5R)-3,4-dihydroxy-5-((3-phenylpropanamido)methyl)tetrahydrofuran-3-yl)methyl)benzamide] | 29.24 | 64.43 |  |  |  | 
13 | O=C(NC[C@H]1OC(O)[C@@](O)(CNC(=O)c2cc(O)c(O)c(O)c2)[C@@H]1O)c1cc(O)c(O)c(O)c1 (stereo partly drawn) [compound 15, N,N′-(((2R,3R,4R)-3,4,5-trihydroxytetrahydrofuran-2,4-diyl)bis(methylene))bis(3,4,5-trihydroxybenzamide)] | 57.74 | 22.35 | 191 | 63.8 |  | 
14 | Cn1cc(C(=O)NC[C@H]2OC[C@@](O)(CNC(=O)c3ccccc3)[C@@H]2O)c2ccccc21 [compound 187, N-(((2R,3R,4S)-4-(benzamidomethyl)-3,4-dihydroxytetrahydrofuran-2-yl)methyl)-1-methyl-1H-indole-3-carboxamide] | 29.24 | 32.91 |  |  |  | 
15 | CCS(=O)(=O)NC[C@H]1OC[C@@](O)(CNC(=O)c2ccccc2)[C@@H]1O [compound 212, N-(((3S,4R,5R)-5-(ethylsulfonamidomethyl)-3,4-dihydroxytetrahydrofuran-3-yl)methyl)benzamide] | 52.64 | 50.68 |  |  |  | 
16 | O=C(NC[C@H]1OC[C@@](O)(CNC(=O)c2ccccc2)[C@@H]1O)c1cccc(F)c1 [compound 161, N-(((2R,3R,4S)-4-(benzamidomethyl)-3,4-dihydroxytetrahydrofuran-2-yl)methyl)-3-fluorobenzamide] | 16.57 | 9.353 |  |  |  | 
17 | O=C(NC[C@]1(O)CO[C@H](Cn2cc(-c3ccccc3)nn2)[C@H]1O)c1ccccc1 [compound 221, N-(((3S,4R,5R)-3,4-dihydroxy-5-((4-phenyl-1H-1,2,3-triazol-1-yl)methyl)tetrahydrofuran-3-yl)methyl)benzamide] | 33.81 | 54.01 |  |  |  | 
18 | O=C(NC[C@]1(O)CO[C@H](CNC(=O)C2CCCCC2)[C@H]1O)c1ccccc1 [compound 191, N-(((3S,4R,5R)-5-(cyclohexanecarboxamidomethyl)-3,4-dihydroxytetrahydrofuran-3-yl)methyl)benzamide] | 19.28 | 32.28 |  |  |  | 
19 | COc1ccc(C(=O)NC[C@]2(O)CO[C@H](CNC(=O)c3ccccc3Cl)[C@H]2O)cc1 [compound 235, 2-chloro-N-(((2R,3R,4S)-3,4-dihydroxy-4-((4-methoxybenzamido)methyl)tetrahydrofuran-2-yl)methyl)benzamide] |  |  |  |  | 57.35 | 66.10
